US8637043B2, “Compositions useful as ligands for the formyl peptide receptor like 1 receptor and methods of use thereof” (Chemocentryx, Inc., priority 2001, dated 2014)
Values joined by “and” are separate entries in the source; they are usually repeats but may differ in a detail not shown here. Equal values may be shown once. Ends that are not written are not given here.

Columns and labels:
human FPRL1 = target: T1, human FPRL1 (Homo sapiens, UniProt P25090); test: Calcium flux in FPRL1-L1.2 transfectants; assay type: cell-based; conditions: for Designation and FPRL1 Activity: qualitative rating high, moderate, low, see Example 9; for Notes: activity: qualitative rating, Table 6
T1 construct: Full length cDNA encoding FPRL1 was cloned, using the polymerase chain reaction (PCR), from genomic DNA isolated from undifferentiated HL-60 cells; expressed in transfected cells; linearized FPRL1/pcDNA3.1, electroporation
T1 sequence (P25090 1-351): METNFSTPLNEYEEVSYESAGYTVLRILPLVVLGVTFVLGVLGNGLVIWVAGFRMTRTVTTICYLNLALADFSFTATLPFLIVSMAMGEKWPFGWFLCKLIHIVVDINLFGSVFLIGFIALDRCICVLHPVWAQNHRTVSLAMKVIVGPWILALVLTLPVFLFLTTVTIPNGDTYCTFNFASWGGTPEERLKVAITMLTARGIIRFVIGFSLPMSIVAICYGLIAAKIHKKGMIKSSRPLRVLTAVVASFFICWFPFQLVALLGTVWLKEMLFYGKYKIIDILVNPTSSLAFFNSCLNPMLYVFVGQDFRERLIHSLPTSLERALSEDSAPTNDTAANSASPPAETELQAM
Method: Ca^2+ mobilization responses were performed using the intracellular ratiometric fluorescent dye, lndo-1. Cells were loaded with Indo-1/AM (3 μM; Molecular Probes, Eugene, Oreg.) in culture medium (45 min, 20° C., 10^7 cells/ml). After dye loading, cells were washed once with 10 ml PBS) and resuspended at 10^6 cell/ml in HBSS containing 1% FBS. Cytosolic [Ca^2+] release was determined using excitation at 350 nm using a Photon Technology International fluorimeter (excitation at 350 nm, ratioed dual emission at 400 and 490 nm).
The functional activities of CKβ8-1 (25-116) were investigated in human FPRL1-L1.2 transfectants and in native L1.2 cells. Stable expression of formyl peptide-like receptor 1 (FPRL1) in L.1.2 cell was obtained as follows. Full length cDNA encoding FPRL1 was cloned, using the polymerase chain reaction (PCR), from genomic DNA isolated from undifferentiated HL-60 cells. […] Twenty micrograms of the FPRL1/pcDNA3.1 construct were linearized by digestion with Bsm1 (New England Biolabs, Beverly, Mass.) and used to transfect the murine B cell line L1.2 as follows. Twenty five million cells were washed twice and resuspended in 0.8 ml of PBS. The cells were incubated for 10 min at room temperature with the linearized FPRL/pcDNA3.1 construct DNA and transferred to a 0.4-cm cuvette, and a single electroporation pulse was applied at 250 V, 960 μF. Electroporated cells were incubated for 10 min at room temperature and transferred to culture at 37° C. in RPMI supplemented with 10% FCS. Geneticin (G418) was added to a final concentration of 800 μg/ml 48 h posttransfection and the cells plated into 96-well plates at 25,000 cells/well. After 2-3 weeks under drug selection, stable geneticin-resistant FPLR1 expressing cells were assessed for their ability to mobilize Ca^++ in response to SHAAGtide or CKbeta 8-1 at concentrations of 1 to 1000 nM.
A calcium flux test was performed on these transfectants using the method described in Example 1.
Stable expression of human FPRL1 in L1.2 cells was obtained as in Example 6. Calcium flux tests were conducted on the transfectants using the method described in Example 1. Chemokines (CKβ8(1-99), CKβ8(25-99), CKβ8-1(1-116) and CKβ8-1(25-116), were prepared as in Example 1. W peptides 1 and 2 were obtained as in Example 6. In addition, and the following SHAAGtide sequences and truncated variants (prepared as in Example 8) were tested:
All ligands were added in a dose response manner and the peak calcium flux response determined.

dendritic cells = test: Dendritic cell infiltration after intradermal injection in mice (anti-DEC-205 staining); assay type: in vivo; design: key to Dendritic cell infiltration Score / Infiltration Score: 0 = none, 1 = slight, 2 = mild, 3 = moderate, 4 = severe; conditions: for Infiltration Score: BALB/c mice, various doses
Text: The following chemokines were obtained from R&D Systems (Minneapolis, Minn.): vMCK-2, mC10, and GM-CSF. The following peptides were synthesized at Phoenix Pharmaceuticals (San Carlos, Calif.): SHAAYtide (SEQ ID NO:6), several […] MODIFIED peptides of SHAAGtide variant (SEQ ID NO:) (i.e. cyclized using the MPR-Cys linked cyclization), control peptide (SEQ ID NO:33, […]Gin Pro Gly lie Lys Arg Arg Trp Leu Met), randomly conjugated to OVA in either a 1:1 or 1:4 ratio (by MBS coupling method), and conjugated to OVA at the C-terminus (C-term, made by the addition of a cysteine), and SHAAGtide variant (SEQ ID NO:3). In three separate experiments, chemokines or peptides (2 μg or 20 μg in PBS) were injected intradermally into BALB/c or C57BI/6 mice (Jackson Laboratory; Bar Harbor, Me.). In each experiment, one mouse received an injection of PBS only as a negative control. At various times after injection, the mice were euthanized, and the area around the injection site was excised and subjected to immunohistology. Frozen sections were stained with anti-DEC-205 antibody (Bio-Whittaker Molecular Applications; Rockland, Me.) that recognizes a dendritic cell-specific molecule (Kraal et al., 1986). A relative staining number on a scale of […] was assigned to each section (0, none; 1, slight; 2, mild; 3, moderate; 4, severe).

OVA-specific IgG = test: Adjuvant activity, anti-OVA antibodies in mice (Example 17); assay type: in vivo, BALB/c mice; conditions: 10 μg OVA
Method: First, 96-well U-bottom plastic dishes were coated overnight with 1 μg ovalbumin (OVA) in 100 μl PBS per well. The next day, the dishes were rinsed with PBS, blocked with PBS containing 5% fetal bovine serum (FBS), and rinsed with PBS again. Plasma samples from experimental animals (see below) were diluted 10^2- to 10^5-fold and added to the dishes for 2 hours, after which the dishes were again rinsed with PBS. The dishes were then incubated with biotinylated goat anti-monkey IgG detection antibodies, then rinsed with PBS and incubated with streptavidin-linked horseradish peroxidase (SA-HRP). After a final rinsing with PBS, the HRP substrate 2,2′-Azinobis [3-ethylbenzothiazoline-6-sulfonic acid]-diammonium salt was added. Color development was measured with an ELISA plate reader at 405 nm, and optical density (OD) units were converted to arbitrary “antibody units,” where a unit is defined as the inverse of the plasma dilution that produces 50% of the maximum response from a standard curve obtained by serial dilution of an ascites collected from OVA-injected mice and containing OVA-specific antibodies.
The experiment described in Example 16 was repeated, except the formulations were administered to BALB/c mice with 10 μg (Table 20) or 500 μg (Table 21) of OVA with in 100 μl. IFA was not used.
BALB/c mice were given OVA with or without SHAAYtide (SEQ ID NO:6) either intraperitoneally on days 0 and 21 (Table 20), or sub-cutaneously on days 0 and 14 (Table 21). Blood samples were collected at the indicated time points. The results, reported in antibody units, are given in Tables 20 and 21, showing IgG levels.

[1] = intraperitoneally on days 0 and 21, 0 day

For “WRRKIG [SEQ ID NO: 10, Trp Arg Arg Lys Ile Gly]”, the “Designation and FPRL1 Activity” value (human FPRL1) was “Low”.
In the case of WRRKIGPQMTLSHAAG [SEQ ID NO: 7], the “Designation and FPRL1 Activity” value (human FPRL1) is reported as “Low”.
With WRRKIGPQM [SEQ ID NO: 9] the “Designation and FPRL1 Activity” value (human FPRL1) was “Low”.
In the case of MLWRRKIGPQM [SEQ ID NO: 8], the “Designation and FPRL1 Activity” value (human FPRL1) is reported as “moderate FPRL1 activity”, the “Designation and FPRL1 Activity” value (human FPRL1; listed as CCXP8) is reported as “Moderate” and the “Notes: activity” value (human FPRL1) is reported as “Moderate”.
In the case of RRKIGPQMTLSHAAG [SEQ ID NO: 2], the IC50 (human FPRL1; peak calcium flux, dose response, read-out: Induction of Calcium Flux in FPRL1 L1.2 Cells, IC 50) is reported as greater than 50 µM.
With GM-CSF the “Infiltration Score” value (dendritic cells; 6 hours) was 2 and 1, the “Infiltration Score” value (dendritic cells; 30 hours) was 1 and the “infiltration of DEC-205-labeled cells” value (dendritic cells; summary of Tables 15, 16 and 17) was “excellent infiltration”.
IGPQMTLSHAAG [SEQ ID NO: 4] was tested, and the “Designation and FPRL1 Activity” value (human FPRL1) was “Low”.
For MLWRRKIGPQMT [SEQ ID NO: 5], the “Designation and FPRL1 Activity” value (human FPRL1) was “Moderate” and the “Notes: activity” value (human FPRL1) was “Moderate”.
With MLWRRKIGPQMTLSH [SEQ ID NO: 3] the “Designation and FPRL1 Activity” value (human FPRL1) was “High” and the “Notes: activity” value (human FPRL1) was “High”.
For LWRRKIGPQMTLSH [SEQ ID NO: 11], the “Designation and FPRL1 Activity” value (human FPRL1) was “does not result in a complete loss in FRPL1 activity”, the “Designation and FPRL1 Activity” value (human FPRL1; listed as CCXP11) was “Moderate” and the “Notes: activity” value (human FPRL1) was “Moderate”.
For “20 μg SHAAYtide (SEQ ID NO: 6): 20 μg SHAAYtide without OVA (MLWRRKIGPQMTLSHAAY; SHAAGtide variant)”, the “anti-OVA IgG, individual mouse” value (OVA-specific IgG; [1]) was 31 antibody units and 47 antibody units and 139 antibody units and 64 antibody units, the “anti-OVA IgG, average” value (OVA-specific IgG; intraperitoneally, 0 day) was 70 antibody units and the “anti-OVA IgG, average” value (OVA-specific IgG; intraperitoneally, 10 d) was 158 antibody units. For the same substance, the “anti-OVA IgG, increase from day 0” value (OVA-specific IgG; intraperitoneally, 10 d) was 88 antibody units, the “anti-OVA IgG, individual mouse” value (OVA-specific IgG; intraperitoneally, 10 d) was 0 antibody units (2×) and 40 antibody units and 592 antibody units and the “anti-OVA IgG, average” value (OVA-specific IgG; intraperitoneally, 15 d) was 42 antibody units. The “anti-OVA IgG, increase from day 0” value (OVA-specific IgG; intraperitoneally, 15 d) was 0 antibody units, the “anti-OVA IgG, individual mouse” value (OVA-specific IgG; intraperitoneally, 15 d) was 0 antibody units (3×) and 168 antibody units and the “anti-OVA IgG, average” value (OVA-specific IgG; intraperitoneally, 27 d) was 112 antibody units. For the same substance, the “anti-OVA IgG, increase from day 0” value (OVA-specific IgG; intraperitoneally, 27 d) was 41 antibody units, the “anti-OVA IgG, individual mouse” value (OVA-specific IgG; intraperitoneally, 27 d) was 122 antibody units and 110 antibody units and 116 antibody units and 98 antibody units and the “anti-OVA IgG, average” value (OVA-specific IgG; intraperitoneally, 31 d) was 40 antibody units. For the same substance, the “anti-OVA IgG, increase from day 0” value (OVA-specific IgG; intraperitoneally, 31 d) was 0 antibody units, the “anti-OVA IgG, individual mouse” value (OVA-specific IgG; intraperitoneally, 31 d) was 12 antibody units and 32 antibody units and 69 antibody units and 47 antibody units and the “anti-OVA IgG, average” value (OVA-specific IgG; intraperitoneally, 36 d) was 0 antibody units. The “anti-OVA IgG, increase from day 0” value (OVA-specific IgG; intraperitoneally, 36 d) was 0 antibody units and the “anti-OVA IgG, individual mouse” value (OVA-specific IgG; intraperitoneally, 36 d) was 0 antibody units.
With “SHAAYtide (SEQ ID NO: 6), cyclized: structurally modified peptide, cyclized using the MPR-Cys linked cyclization (MLWRRKIGPQMTLSHAAY; also: cyclized using MPR-Cys linked cyclization, MPR and Cys not in given letters)” the “Infiltration Score” value (dendritic cells; 30 hours) was 1 and 2.
With “2 μg SHAAYtide (SEQ ID NO: 6): 2 μg SHAAYtide without OVA (MLWRRKIGPQMTLSHAAY; SHAAGtide variant)” the “anti-OVA IgG, individual mouse” value (OVA-specific IgG; [1]) was 7 antibody units (2×) and 14 antibody units and 24 antibody units, the “anti-OVA IgG, average” value (OVA-specific IgG; intraperitoneally, 0 day) was 13 antibody units and the “anti-OVA IgG, average” value (OVA-specific IgG; intraperitoneally, 10 d) was 68 antibody units. For the same substance, the “anti-OVA IgG, increase from day 0” value (OVA-specific IgG; intraperitoneally, 10 d) was 55 antibody units, the “anti-OVA IgG, individual mouse” value (OVA-specific IgG; intraperitoneally, 10 d) was 0 antibody units (3×) and 273 antibody units and the “anti-OVA IgG, average” value (OVA-specific IgG; intraperitoneally, 15 d) was 0 antibody units. The “anti-OVA IgG, increase from day 0” value (OVA-specific IgG; intraperitoneally, 15 d) was 0 antibody units, the “anti-OVA IgG, individual mouse” value (OVA-specific IgG; intraperitoneally, 15 d) was 0 antibody units and the “anti-OVA IgG, average” value (OVA-specific IgG; intraperitoneally, 27 d) was 51 antibody units. For the same substance, the “anti-OVA IgG, increase from day 0” value (OVA-specific IgG; intraperitoneally, 27 d) was 38 antibody units, the “anti-OVA IgG, individual mouse” value (OVA-specific IgG; intraperitoneally, 27 d) was 47 antibody units (2×) and 58 antibody units and the “anti-OVA IgG, average” value (OVA-specific IgG; intraperitoneally, 31 d) was 19 antibody units. For the same substance, the “anti-OVA IgG, increase from day 0” value (OVA-specific IgG; intraperitoneally, 31 d) was 6 antibody units, the “anti-OVA IgG, individual mouse” value (OVA-specific IgG; intraperitoneally, 31 d) was 47 antibody units and 17 antibody units and 12 antibody units and 0 antibody units and the “anti-OVA IgG, average” value (OVA-specific IgG; intraperitoneally, 36 d) was 42 antibody units. The “anti-OVA IgG, increase from day 0” value (OVA-specific IgG; intraperitoneally, 36 d) was 29 antibody units and the “anti-OVA IgG, individual mouse” value (OVA-specific IgG; intraperitoneally, 36 d) was 60 antibody units (2×) and 46 antibody units and 0 antibody units.
